How the values were obtained:
Solubility = assay type: physicochemical
HG21 DNA = assay: CD spectra: G-quadruplex induction by TPE derivatives; assay type: biochemical; conditions: 9 μM DNA, 4.5 μM TPE derivative, Tris-HCl pH 7.5, 25 °C
Protocol: [TPE]=4.5 μM; [HG21]=9 μM and [K^+]=0.5 M.
CD spectral profiles of 9 μM DNA in 5 mM Tris-HCl buffer solutions (pH 7.5) incubated under 25° C. with four different TPE derivatives at 4.5 μM or with 0.5M K^+ ions are studied (FIG. 77). TPE derivatives 1-4 are TTAPE (Example 6), TPE-2 (chemical structure is not shown herein), TPE-3 (chemical structure is not shown herein) and TPE-C2N+ (Example 3), respectively. […] On the other hand, DNA incubated with TTAPE or the known quadruplex inducer; K^+ ions have very similar spectral profiles, while the ellipticities of DNA/TTAPE are somehow weaker than DNA/K^+.

G-quadruplex of G1 = assay: Isothermal titration calorimetry (ITC); assay type: binding, human
Protocol: It is clear that TTAPE is highly affinitive to K^+-containing G-quadruplex but not its Na^+ cousin. Isothermal titration calorimetry (ITC) measurements are performed, in an effort to understand the thermodynamic basis for the binding affinity difference. ITC is a sensitive technique for the studies of bimolecular processes and can provide direct information about binding affinities and associated thermodynamic parameters. A calorimetric titration experiment was performed at 25.00±0.01° C. on a MicroCal VP-ITC apparatus. G1 solutions for the ITC experiments were prepared in all-potassium (K-Tris: 5 mM Tris-HCl and 150 mM KCl) or all-sodium (Na-Tris: 5 mM Tris-HCl and 150 mM NaCl) buffer at pH 7.50, as required. The buffer solution of G1 was heated to 85° C. and cooled slowly to ensure the folding of the DNA into G-quadruplex structure. For a typical titration, a series of 10 μL aliquots of TTAPE solution were injected into the G1/M^+ solution at a 240 s interval. The heat for each injection was determined by the integration of the peak area in the thermogram with respect to time. Blank titration was conducted by injecting TTAPE into the sample cell containing only buffer under the same condition. The interaction heat was corrected by subtracting the blank heat from that for the TTAPE/G1 titration. The kb values were derived by fitting the isotherm curves with Origin 5.0 software.

H21 = assay: Job plots for the binding of TTAPE to H21
Protocol: The sum of TTAPE and DNA concentrations was kept at 10 μM. Fluorescent intensities for the bound TTAPE at 470 nm are normalized to the maximum increase in each case. The y-axis represents the difference in PL intensity for mole fraction of ligand (χL) in DNA. Intercept mole fraction values were determined from least-squares fits to the linear data portions, giving yjni values of 0.50 (1:1 stoichiometry) for H21 in K-Tris, 0.67 […] for H21 in Na-Tris, and 0.75 […] for H21 in Tris-HCl, respectively.

G1 = assay: Time-dependent FL of G1 folding; assay type: biochemical, human
Protocol: Time-dependent FL was measured on a FluostarOptima multifunctional microplate reader (BMG Labtechnologies) with λex/λem set at 350/470 nm. To gain insight into dynamics of the folding process of G1, time-dependent FL measurements are performed. Solutions containing TTAPE and G1 are first incubated for 30 min to ensure complete dye/DNA complexation and transferred to a 96-well microtiter plate after incubation. Appropriate amounts of metal ions were added by an automatic injection mode. Kinetic measurements were performed at 20° C. and the FL data were recorded in every 4 s. The change in the emission intensity (1) of the solution after the addition of K^+ can be fitted by a second-order exponential curve: I=A1e^−t/τ1+A2e^−t/τ2+c Eq. (1) where t is the time, τ1 and r2 are the time constants of FL recovery, A^1 and A^2 are the respective amplitudes (the folding process is characterized by negative A values), and c is the FL intensity at t=infinity. Mean time constant (<τ>) was calculated according to eq. 2:
In one embodiment, a solution of potassium chloride is then injected at time t=0 (automatic injection mode) and the emission intensity at 470 nm is monitored. The emission drops abruptly to ˜30% of its original intensity at the beginning but starts to recover after ˜8 s and finally reaches a plateau at ˜320 s (FIG. 42). […]

[1] = tested on: ctDNA/RNA from torula yeast/BSA; assay: Fluorescence increments / binding isotherm with ctDNA, RNA and BSA; conditions: dye 5 μM
Protocol: FIG. 8 illustrates increments of fluorescence of TPE-C2N^+ (8), N+C2-TPE-C2N^+ (9), TPE-C4N^+ (10), N+C4-TPE-C4N^+ (11) when binding with 10 μg/ml ctDNA/10 μg/ml RNA diethylaminoethanol (DEAE) salt from torula yeast/10 μg/ml RNA from torula yeast in buffer solution pH=7. Concentration of dyes: 5 μM; excitation wavelength: 350 nm. The four cationic TPE derivatives display larger FL enhancement in the presence of DNA than that of RNA.
FIG. 9 illustrates the binding isotherm of N+C2-TPE-C2N^+ (5 μM) to ctDNA/RNA from torula yeast/BSA (plot of the fluorescence intensity at 470 nm for ctDNA/RNA, and at 467 nm for BSA) in aqueous phosphate buffer (pH=7.0).

In the case of `CC[N+](CC)(CC)CCOc1ccc(C(=C(c2ccc(OCC[N+](CC)(CC)CC)cc2)c2ccc(OCC[N+](CC)(CC)CC)cc2)c2ccc(OCC[N+](CC)(CC)CC)cc2)cc1.[Br-].[Br-].[Br-].[Br-]` [TTAPE, 1,1,2,2-tetrakis[4-(2-triethylammonioethoxy)phenyl]ethene tetrabromide], the Solubility in water (Solubility) is reported as “completely soluble in water”, the “G-quadruplex induction (CD spectral profile)” value (HG21 DNA) is reported as “acts as an internal quadruplex inducer under 25 °C” and the “Gibbs energy (ΔG°)” value (G-quadruplex of G1; G1/K+ buffer, 25 °C) is reported as -7.3 kcal/mol. The Binding constant (G-quadruplex of G1; Na+ titration (Na-Tris)) was “too small to be determined accurately”, the “Job plot intercept mole fraction” value (H21; H21 in K-Tris buffer pH 7.50) was 0.50 and the “Job plot intercept mole fraction” value (H21; H21 in Na-Tris buffer pH 7.50) was 0.67. The “Job plot intercept mole fraction” value (H21; H21 in Tris-HCl buffer pH 7.50) was 0.75, the “Weighted mean time constant (<τ>) of FL recovery” value (G1; K+ 0.5 M injected into TTAPE/G1, 470 nm, 20 °C) was 116 s and the “Time at which recovered emission reaches a plateau” value (G1; K+ injected into TTAPE/G1, 470 nm) was roughly 320 s. The “Variety of FL in presence of DNA and RNA compared with TPE-C2N+ and TPE-C4N+” value ([1]; 10 μg/ml ctDNA or RNA) was “much larger variety of FL” and the “Relative affinity to DNA, RNA and proteins” value ([1]; aqueous phosphate buffer pH 7.0) was “larger affinity to DNA than to RNA and proteins”.
